Experimental data from ChEMBL document CHEMBL3045835, “Comparative study of conventional and microwave-assisted synthesis of some Schiff bases and their potential as antimicrobial agents” (2012).
Converted amounts (≈) assume the structure as drawn.

Assays:
Assay type in all cases: functional
[1] = test system: Pseudomonas aeruginosa; experiment: Antibacterial activity against Pseudomonas aeruginosa MTCC 424 at 500 ug/ml after 18 hr by cup-plate method; conditions: MTCC 424, 18 h, read-out: DIZ
[2] = test system: Pseudomonas aeruginosa; experiment: Antibacterial activity against Pseudomonas aeruginosa MTCC 424 at 200 ug/ml after 18 hr by cup-plate method; conditions: MTCC 424, 18 h, read-out: DIZ
[3] = test system: Pseudomonas aeruginosa; experiment: Antibacterial activity against Pseudomonas aeruginosa MTCC 424 at 100 ug/ml after 18 hr by cup-plate method; conditions: MTCC 424, 18 h, read-out: DIZ
[4] = test system: Micrococcus luteus; experiment: Antibacterial activity against Micrococcus luteus MTCC 1538 at 1500 ug/ml after 18 hr by cup-plate method; conditions: MTCC 1538, 18 h, read-out: DIZ
[5] = test system: Micrococcus luteus; experiment: Antibacterial activity against Micrococcus luteus MTCC 1538 at 1000 ug/ml after 18 hr by cup-plate method; conditions: MTCC 1538, 18 h, read-out: DIZ
[6] = test system: Micrococcus luteus; experiment: Antibacterial activity against Micrococcus luteus MTCC 1538 at 500 ug/ml after 18 hr by cup-plate method; conditions: MTCC 1538, 18 h, read-out: DIZ
[7] = test system: Micrococcus luteus; experiment: Antibacterial activity against Micrococcus luteus MTCC 1538 at 200 ug/ml after 18 hr by cup-plate method; conditions: MTCC 1538, 18 h, read-out: DIZ
[8] = test system: Micrococcus luteus; experiment: Antibacterial activity against Micrococcus luteus MTCC 1538 at 100 ug/ml after 18 hr by cup-plate method; conditions: MTCC 1538, 18 h, read-out: DIZ
[9] = test system: Bacillus pumilus; experiment: Antibacterial activity against Bacillus pumilus MTCC 1456 at 1500 ug/ml after 18 hr by cup-plate method; conditions: MTCC 1456, 18 h, read-out: DIZ
[10] = test system: Bacillus pumilus; experiment: Antibacterial activity against Bacillus pumilus MTCC 1456 at 1000 ug/ml after 18 hr by cup-plate method; conditions: MTCC 1456, 18 h, read-out: DIZ
[11] = test system: Bacillus pumilus; experiment: Antibacterial activity against Bacillus pumilus MTCC 1456 at 500 ug/ml after 18 hr by cup-plate method; conditions: MTCC 1456, 18 h, read-out: DIZ
[12] = test system: Bacillus pumilus; experiment: Antibacterial activity against Bacillus pumilus MTCC 1456 at 200 ug/ml after 18 hr by cup-plate method; conditions: MTCC 1456, 18 h, read-out: DIZ
[13] = test system: Bacillus pumilus; experiment: Antibacterial activity against Bacillus pumilus MTCC 1456 at 100 ug/ml after 18 hr by cup-plate method; conditions: MTCC 1456, 18 h, read-out: DIZ
[14] = test system: Bacillus subtilis; experiment: Antibacterial activity against Bacillus subtilis MTCC 441 at 1000 ug/ml after 18 hr by cup plate method; conditions: MTCC 441, 18 h, read-out: DIZ
[15] = test system: Bacillus subtilis; experiment: Antibacterial activity against Bacillus subtilis MTCC 441 at 1500 ug/ml after 18 hr by cup plate method; conditions: MTCC 441, 18 h, read-out: DIZ
[16] = test system: Bacillus subtilis; experiment: Antibacterial activity against Bacillus subtilis MTCC 441 at 500 ug/ml after 18 hr by cup plate method; conditions: MTCC 441, 18 h, read-out: DIZ
[17] = test system: Bacillus subtilis; experiment: Antibacterial activity against Bacillus subtilis MTCC 441 at 200 ug/ml after 18 hr by cup plate method; conditions: MTCC 441, 18 h, read-out: DIZ
[18] = test system: Bacillus subtilis; experiment: Antibacterial activity against Bacillus subtilis MTCC 441 at 100 ug/ml after 18 hr by cup plate method; conditions: MTCC 441, 18 h, read-out: DIZ
[19] = test system: Staphylococcus aureus; experiment: Antibacterial activity against Staphylococcus aureus MTCC 1430 at 1500 ug/ml after 18 hr by cup-plate method; conditions: MTCC 1430, 18 h, read-out: DIZ
[20] = test system: Staphylococcus aureus; experiment: Antibacterial activity against Staphylococcus aureus MTCC 1430 at 1000 ug/ml after 18 hr by cup-plate method; conditions: MTCC 1430, 18 h, read-out: DIZ
[21] = test system: Staphylococcus aureus; experiment: Antibacterial activity against Staphylococcus aureus MTCC 1430 at 500 ug/ml after 18 hr by cup-plate method; conditions: MTCC 1430, 18 h, read-out: DIZ
[22] = test system: Staphylococcus aureus; experiment: Antibacterial activity against Staphylococcus aureus MTCC 1430 at 200 ug/ml after 18 hr by cup-plate method; conditions: MTCC 1430, 18 h, read-out: DIZ
[23] = test system: Staphylococcus aureus; experiment: Antibacterial activity against Staphylococcus aureus MTCC 1430 at 100 ug/ml after 18 hr by cup-plate method; conditions: MTCC 1430, 18 h, read-out: DIZ
[24] = test system: Penicillium chrysogenum; experiment: Antifungal activity against Penicillium chrysogenum MTCC 161 after 24 hr by broth dilution method; conditions: MTCC 161, 24 h
[25] = test system: Aspergillus niger; experiment: Antifungal activity against Aspergillus niger MTCC 2546 after 24 hr by broth dilution method; conditions: MTCC 2546, 24 h
[26] = test system: Escherichia coli; experiment: Antibacterial activity against Escherichia coli MTCC 1573 after 24 hr by broth dilution method; conditions: MTCC 1573, 24 h
[27] = test system: Pseudomonas fluorescens; experiment: Antibacterial activity against Pseudomonas fluorescens MTCC 2421 after 24 hr by broth dilution method; conditions: MTCC 2421, 24 h

Compound: C(=N\c1nc[nH]n1)/c1cccs1
- zone of inhibition at 500 µg/mL [1]: 15 mm
- zone of inhibition at 200 µg/mL [2]: 13 mm
- zone of inhibition at 100 µg/mL [3]: 12 mm
- zone of inhibition at 1500 µg/mL [4]: 22 mm
- zone of inhibition at 1000 µg/mL [5]: 20 mm
- zone of inhibition at 500 µg/mL [6]: 18 mm
- zone of inhibition at 200 µg/mL [7]: 16 mm
- zone of inhibition at 100 µg/mL [8]: 13 mm
- zone of inhibition at 1500 µg/mL [9]: 18 mm
- zone of inhibition at 1000 µg/mL [10]: 17 mm
- zone of inhibition at 500 µg/mL [11]: 16 mm
- zone of inhibition at 200 µg/mL [12]: 15 mm
- zone of inhibition at 100 µg/mL [13]: 13 mm
- zone of inhibition at 1000 µg/mL [14]: 16 mm
- zone of inhibition at 1500 µg/mL [15]: 22 mm
- zone of inhibition at 500 µg/mL [16]: 14 mm
- zone of inhibition at 200 µg/mL [17]: 11 mm
- zone of inhibition at 100 µg/mL [18]: 10 mm
- zone of inhibition at 1500 µg/mL [19]: 19 mm
- zone of inhibition at 1000 µg/mL [20]: 18 mm
- zone of inhibition at 500 µg/mL [21]: 16 mm
- zone of inhibition at 200 µg/mL [22]: 13 mm
- zone of inhibition at 100 µg/mL [23]: 11 mm
- MIC [24]: 400 µg/mL (≈ 2240 µM)
- MIC [25]: 300 µg/mL (≈ 1680 µM)
- MIC [26]: 200 µg/mL (≈ 1120 µM)
- MIC [27]: 300 µg/mL (≈ 1680 µM)
